For this assay, the target named is T1, CK1α (Homo sapiens, UniProt P48729+Q96SW2).
T1 construct: expressed in transfected cells
Nature of the assay: CK1α ePL degradation assay in MDS-L cells. In kind it is cell-based. The following applies: MDS-L cells expressing ePL-tagged CK1α; for DC50: concentration giving 50% CK1α degradation vs DMSO control; for Y: lowest measured CK1α level normalized to DMSO control. The method in brief: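 MDS-L cells treated with compound in a 10-point, 3-fold series from 10 μM to 0.0005 μM at 37° C, 5% CO2 for the indicated times; CK1α measured by InCELL Hunter enzyme-fragment luminescence. Levels normalized to DMSO as percent of control; lowest level reached taken as Y value.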

Molecules are shown by their SMILES.

T1 sequence (P48729 whole entry): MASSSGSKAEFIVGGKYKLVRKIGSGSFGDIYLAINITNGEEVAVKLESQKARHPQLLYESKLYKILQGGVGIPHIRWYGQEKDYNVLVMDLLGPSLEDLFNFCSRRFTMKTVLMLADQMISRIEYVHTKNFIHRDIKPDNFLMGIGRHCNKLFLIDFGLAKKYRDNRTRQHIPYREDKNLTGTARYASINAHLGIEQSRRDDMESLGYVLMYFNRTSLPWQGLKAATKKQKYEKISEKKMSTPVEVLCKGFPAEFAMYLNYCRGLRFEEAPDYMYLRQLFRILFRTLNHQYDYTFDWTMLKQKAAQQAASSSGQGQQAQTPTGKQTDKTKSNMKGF
T1 sequence (Q96SW2 whole entry): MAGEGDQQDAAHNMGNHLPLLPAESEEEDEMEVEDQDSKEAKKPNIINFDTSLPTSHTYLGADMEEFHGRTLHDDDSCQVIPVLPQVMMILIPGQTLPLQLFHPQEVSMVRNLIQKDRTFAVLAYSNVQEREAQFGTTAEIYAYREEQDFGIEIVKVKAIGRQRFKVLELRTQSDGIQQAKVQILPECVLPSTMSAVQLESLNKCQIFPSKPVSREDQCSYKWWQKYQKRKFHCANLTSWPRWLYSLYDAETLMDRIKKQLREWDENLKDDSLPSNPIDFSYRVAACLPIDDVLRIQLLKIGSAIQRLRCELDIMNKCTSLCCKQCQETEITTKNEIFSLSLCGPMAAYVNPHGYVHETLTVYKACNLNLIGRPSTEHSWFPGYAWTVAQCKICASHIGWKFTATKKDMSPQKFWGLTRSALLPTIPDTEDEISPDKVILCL
T1 sequence (Q16531 whole entry partner): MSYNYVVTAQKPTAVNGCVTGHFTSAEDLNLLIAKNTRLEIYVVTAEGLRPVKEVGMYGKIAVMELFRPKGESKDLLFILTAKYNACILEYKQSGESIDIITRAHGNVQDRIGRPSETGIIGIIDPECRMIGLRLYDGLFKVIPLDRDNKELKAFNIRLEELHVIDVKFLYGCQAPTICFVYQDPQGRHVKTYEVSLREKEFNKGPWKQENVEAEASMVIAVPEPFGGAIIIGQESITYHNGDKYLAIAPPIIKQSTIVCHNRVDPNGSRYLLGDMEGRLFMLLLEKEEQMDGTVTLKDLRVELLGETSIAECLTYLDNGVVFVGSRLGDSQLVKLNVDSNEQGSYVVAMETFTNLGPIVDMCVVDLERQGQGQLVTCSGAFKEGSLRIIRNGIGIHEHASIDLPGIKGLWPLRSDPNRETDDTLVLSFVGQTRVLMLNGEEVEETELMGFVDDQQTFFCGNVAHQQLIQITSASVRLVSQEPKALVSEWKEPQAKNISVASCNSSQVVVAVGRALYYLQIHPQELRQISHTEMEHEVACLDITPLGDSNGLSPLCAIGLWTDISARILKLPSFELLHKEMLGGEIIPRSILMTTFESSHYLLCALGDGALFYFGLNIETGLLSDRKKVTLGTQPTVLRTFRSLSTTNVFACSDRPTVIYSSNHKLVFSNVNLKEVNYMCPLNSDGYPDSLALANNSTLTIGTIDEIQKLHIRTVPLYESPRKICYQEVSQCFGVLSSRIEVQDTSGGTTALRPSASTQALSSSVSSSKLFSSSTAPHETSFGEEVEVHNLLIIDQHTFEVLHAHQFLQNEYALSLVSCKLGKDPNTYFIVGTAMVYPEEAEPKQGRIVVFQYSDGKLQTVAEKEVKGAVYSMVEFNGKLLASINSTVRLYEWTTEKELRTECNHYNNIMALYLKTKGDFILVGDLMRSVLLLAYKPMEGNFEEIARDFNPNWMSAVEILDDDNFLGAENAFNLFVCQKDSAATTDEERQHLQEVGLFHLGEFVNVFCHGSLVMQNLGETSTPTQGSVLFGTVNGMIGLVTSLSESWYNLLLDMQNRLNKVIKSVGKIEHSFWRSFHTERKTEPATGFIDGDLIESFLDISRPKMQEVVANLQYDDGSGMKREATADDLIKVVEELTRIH

Consider `O=C1CCC(N2Cc3c(ccc(C(=O)N[C@H](c4ccc(F)cc4)C(F)F)c3F)C2=O)C(=O)N1` (stereo partly drawn) [Example 112, N-((R)-2,2-difluoro-1-(4-fluorophenyl)ethyl)-2-(2,6-dioxopiperidin-3-yl)-4-fluoro-1-oxoisoindoline-5-carboxamide], for which the DC50 (as a rule, the concentration giving 50% degradation) was under 100 nM and the Y result was “* (a Y value (shown as *) of 0<Y≤20%)”.
`O=C1CCC(N2Cc3c(ccc(C(=O)N[C@H](c4ccc(F)c(F)c4)C(F)(F)F)c3F)C2=O)C(=O)N1` (stereo partly drawn) [Example 113, N-((R)-1-(3,4-difluorophenyl)-2,2,2-trifluoroethyl)-2-(2,6-dioxopiperidin-3-yl)-4-fluoro-1-oxoisoindoline-5-carboxamide]: the DC50 is 100 to 500 nM and the Y entry was “** (a Y value (shown as**) of 20%<Y≤35%)”.
Regarding `O=C1CCC(N2Cc3c(ccc(C(=O)N[C@H](c4ccccc4Cl)C(F)(F)F)c3F)C2=O)C(=O)N1` (stereo partly drawn) [Example 114, N-((R)-1-(2-chlorophenyl)-2,2,2-trifluoroethyl)-2-(2,6-dioxopiperidin-3-yl)-4-fluoro-1-oxoisoindoline-5-carboxamide], the DC50 was under 100 nM and the Y result is listed as “* (a Y value (shown as *) of 0<Y≤20%)”.
On to `O=C1CCC(N2Cc3c(ccc(C(=O)N[C@H](c4ccc(F)cn4)C(F)(F)F)c3F)C2=O)C(=O)N1` (stereo partly drawn) [Example 115, 2-(2,6-dioxopiperidin-3-yl)-4-fluoro-1-oxo-N-((R)-2,2,2-trifluoro-1-(5-fluoropyridin-2-yl)ethyl)isoindoline-5-carboxamide], for which the DC50 fell in the range of 100 to 500 nM and the Y result is on record as “** (a Y value (shown as**) of 20%<Y≤35%)”.
On the same counts, the results for `O=C1CCC(N2Cc3cc(C(=O)N[C@H](c4ncccc4C(F)(F)F)C(F)(F)F)ccc3C2=O)C(=O)N1` (stereo partly drawn) [Example 116, 2-(2,6-dioxopiperidin-3-yl)-1-oxo-N-((R)-2,2,2-trifluoro-1-(3-(trifluoromethyl)pyridin-2-yl)ethyl)isoindoline-5-carboxamide] are 100 to 500 nM and “** (a Y value (shown as**) of 20%<Y≤35%)”.
For the compound `O=C1CCC(N2Cc3c(ccc(C(=O)N[C@H](c4ncccc4F)C(F)(F)F)c3F)C2=O)C(=O)N1` (stereo partly drawn) [Example 117, 2-(2,6-dioxopiperidin-3-yl)-4-fluoro-1-oxo-N-((R)-2,2,2-trifluoro-1-(3-fluoropyridin-2-yl)ethyl)isoindoline-5-carboxamide], the 50% degradation concentration (DC50) is 100 to 500 nM and the Y entry is given as “** (a Y value (shown as**) of 20%<Y≤35%)”.
In the case of `CC[C@@H](NC(=O)c1ccc2c(c1)CN(C1CCC(=O)NC1=O)C2=O)c1ccccc1` (some centres unmarked) [Example 118], the DC50 fell in the range of 100 to 500 nM and the Y result is given as “** (a Y value (shown as**) of 20%<Y≤35%)”.
Turning to `O=C1CCC(N2Cc3cc(C(=O)N[C@H](c4cc(C(F)(F)F)ccn4)C(F)(F)F)ccc3C2=O)C(=O)N1` (stereo partly drawn) [Example 119, 2-(2,6-dioxopiperidin-3-yl)-1-oxo-N-((R)-2,2,2-trifluoro-1-(4-(trifluoromethyl)pyridin-2-yl)ethyl)isoindoline-5-carboxamide], the DC50 was under 100 nM and the Y entry is “** (a Y value (shown as**) of 20%<Y≤35%)”.
For the compound `O=C1CCC(N2Cc3c(ccc(C(=O)N[C@H](c4cccc(OC(F)(F)F)c4)C(F)(F)F)c3F)C2=O)C(=O)N1` (stereo partly drawn) [Example 120, 2-(2,6-dioxopiperidin-3-yl)-4-fluoro-1-oxo-N-((R)-2,2,2-trifluoro-1-(3-(trifluoromethoxy)phenyl)ethyl)isoindoline-5-carboxamide], the DC50 is 100 to 500 nM and the Y result is “** (a Y value (shown as**) of 20%<Y≤35%)”.
As to `O=C1CCC(N2Cc3c(ccc(C(=O)N[C@H](C4CCCCC4)C(F)(F)F)c3F)C2=O)C(=O)N1` (stereo partly drawn) [Example 121, N-((R)-1-cyclohexyl-2,2,2-trifluoroethyl)-2-(2,6-dioxopiperidin-3-yl)-4-fluoro-1-oxoisoindoline-5-carboxamide], the DC50 was under 100 nM and the Y entry was “* (a Y value (shown as *) of 0<Y≤20%)”.
For `O=C1CCC(N2Cc3cc(C(=O)N[C@H](c4cccc(OC5CC5)c4)C(F)(F)F)ccc3C2=O)C(=O)N1` (stereo partly drawn) [Example 122, N-((R)-1-(3-cyclopropoxyphenyl)-2,2,2-trifluoroethyl)-2-(2,6-dioxopiperidin-3-yl)-1-oxoisoindoline-5-carboxamide], the DC50 was under 100 nM and the Y entry is listed as “* (a Y value (shown as *) of 0<Y≤20%)”.
On to `O=C1CCC(N2Cc3cc(C(=O)N[C@@H](CC(F)(F)F)c4ccc(F)cc4)ccc3C2=O)C(=O)N1` (stereo partly drawn) [Example 123, 2-(2,6-dioxopiperidin-3-yl)-1-oxo-N-((S)-3,3,3-trifluoro-1-(4-fluorophenyl)propyl)isoindoline-5-carboxamide], for which the DC50 was in the range of 100 to 500 nM and the Y entry is listed as “** (a Y value (shown as**) of 20%<Y≤35%)”.
In the case of `CC(C)[C@@H](NC(=O)c1ccc2c(c1)CN(C1CCC(=O)NC1=O)C2=O)c1ccccc1` (stereo partly drawn) [Example 124, 2-(2,6-dioxopiperidin-3-yl)-N-((R)-2-methyl-1-phenylpropyl)-1-oxoisoindoline-5-carboxamide], the DC50 was under 100 nM and the Y result is on record as “* (a Y value (shown as *) of 0<Y≤20%)”.
Turning to `O=C1CCC(N2Cc3cc(C(=O)N[C@H](c4cccc(C(F)(F)F)n4)C(F)(F)F)ccc3C2=O)C(=O)N1` (stereo partly drawn) [Example 125, 2-(2,6-dioxopiperidin-3-yl)-1-oxo-N-((R)-2,2,2-trifluoro-1-(6-(trifluoromethyl)pyridin-2-yl)ethyl)isoindoline-5-carboxamide], the DC50 is under 100 nM and the Y result is recorded as “* (a Y value (shown as *) of 0<Y≤20%)”.
Take `O=C1CCC(N2Cc3cc(C(=O)N[C@H](c4ccc(C(F)(F)F)cn4)C(F)(F)F)ccc3C2=O)C(=O)N1` (stereo partly drawn) [Example 126, 2-(2,6-dioxopiperidin-3-yl)-1-oxo-N-((R)-2,2,2-trifluoro-1-(5-(trifluoromethyl)pyridin-2-yl)ethyl)isoindoline-5-carboxamide]: the DC50 was under 100 nM and the Y result is “** (a Y value (shown as**) of 20%<Y≤35%)”.
As for `O=C1CCC(N2Cc3cc(C(=O)N[C@H](c4ncc(Cl)cc4F)C(F)(F)F)ccc3C2=O)C(=O)N1` (stereo partly drawn) [Example 127, N-((R)-1-(5-chloro-3-fluoropyridin-2-yl)-2,2,2-trifluoroethyl)-2-(2,6-dioxopiperidin-3-yl)-1-oxoisoindoline-5-carboxamide], the DC50 is under 100 nM and the Y entry was “* (a Y value (shown as *) of 0<Y≤20%)”.
With `Cc1ccccc1[C@@H](NC(=O)c1ccc2c(c1F)CN(C1CCC(=O)NC1=O)C2=O)C(F)(F)F` (stereo partly drawn) [Example 128, 2-(2,6-dioxopiperidin-3-yl)-4-fluoro-1-oxo-N-((R)-2,2,2-trifluoro-1-o-tolylethyl)isoindoline-5-carboxamide], the DC50 was under 100 nM and the Y result is recorded as “* (a Y value (shown as *) of 0<Y≤20%)”.
Consider `O=C1CCC(N2Cc3c(ccc(C(=O)N[C@@H](CC(F)(F)F)c4ccc(Cl)cc4)c3F)C2=O)C(=O)N1` (stereo partly drawn) [Example 129, N-((S)-1-(4-chlorophenyl)-3,3,3-trifluoropropyl)-2-(2,6-dioxopiperidin-3-yl)-4-fluoro-1-oxoisoindoline-5-carboxamide], for which the DC50 was 500 to 1000 nM and the Y result is reported as “*** (a Y value (shown as***) of 35%<Y<50%)”.
`O=C1CCC(N2Cc3c(ccc(C(=O)N[C@H](c4ccc(OC5CC5)cc4)C(F)(F)F)c3F)C2=O)C(=O)N1` (stereo partly drawn) [Example 130, N-((R)-1-(4-cyclopropoxyphenyl)-2,2,2-trifluoroethyl)-2-(2,6-dioxopiperidin-3-yl)-4-fluoro-1-oxoisoindoline-5-carboxamide]: the DC50 was in the range of 100 to 500 nM and the Y entry is on record as “** (a Y value (shown as**) of 20%<Y≤35%)”.
For the compound `C[C@@H](NC(=O)c1ccc2c(c1)CN(C1CCC(=O)NC1=O)C2=O)c1ccccc1C#N` (stereo partly drawn) [Example 131, N-((R)-1-(2-cyanophenyl)ethyl)-2-(2,6-dioxopiperidin-3-yl)-1-oxoisoindoline-5-carboxamide], the 50% degradation concentration (DC50) is under 100 nM and the Y result is recorded as “** (a Y value (shown as**) of 20%<Y≤35%)”.
For `C[C@@H](NC(=O)c1ccc2c(c1)CN(C1CCC(=O)NC1=O)C2=O)C1CCCC1` (some centres unmarked) [Example 132], the DC50 was in the range of 100 to 500 nM and the Y entry is given as “** (a Y value (shown as**) of 20%<Y≤35%)”.
`O=C1CCC(N2Cc3cc(C(=O)N[C@H](c4ncc(F)cc4F)C(F)(F)F)ccc3C2=O)C(=O)N1` (stereo partly drawn) [Example 133, N-((R)-1-(3,5-difluoropyridin-2-yl)-2,2,2-trifluoroethyl)-2-(2,6-dioxopiperidin-3-yl)-1-oxoisoindoline-5-carboxamide]: the DC50 is under 100 nM and the Y result is recorded as “* (a Y value (shown as *) of 0<Y≤20%)”.
As for `Cc1cccc([C@@H](NC(=O)c2ccc3c(c2F)CN(C2CCC(=O)NC2=O)C3=O)C(F)(F)F)c1` (stereo partly drawn) [Example 134, 2-(2,6-dioxopiperidin-3-yl)-4-fluoro-1-oxo-N-((R)-2,2,2-trifluoro-1-m-tolylethyl)isoindoline-5-carboxamide], the DC50 is under 100 nM and the Y result is “** (a Y value (shown as**) of 20%<Y≤35%)”.
Take `O=C1CCC(N2Cc3c(ccc(C(=O)N[C@H](c4ccc(OC(F)(F)F)cc4)C(F)(F)F)c3F)C2=O)C(=O)N1` (stereo partly drawn) [Example 135, 2-(2,6-dioxopiperidin-3-yl)-4-fluoro-1-oxo-N-((R)-2,2,2-trifluoro-1-(4-(trifluoromethoxy)phenyl)ethyl)isoindoline-5-carboxamide]: the DC50 lay in the range of 100 to 500 nM and the Y entry is “** (a Y value (shown as**) of 20%<Y≤35%)”.
Regarding `O=C1CCC(N2Cc3c(ccc(C(=O)N[C@H](c4ccccc4OC(F)(F)F)C(F)(F)F)c3F)C2=O)C(=O)N1` (stereo partly drawn) [Example 136, 2-(2,6-dioxopiperidin-3-yl)-4-fluoro-1-oxo-N-((R)-2,2,2-trifluoro-1-(2-(trifluoromethoxy)phenyl)ethyl)isoindoline-5-carboxamide], the DC50 is under 100 nM and the Y entry is reported as “* (a Y value (shown as *) of 0<Y≤20%)”.

The values are drawn from US11306101B2 (Celgene Corporation, priority 2019, dated 2022).
